Measured values published in patent US6133039A, “In vivo method for determination of oxidative stress” (Washinton University, priority 2000, dated 2000).
Each block holds one compound with its values, some of them ahead of it.

What was measured:
[1] = 3-nitrotyrosine given to animals; Tabrizi-Fard et al.; cited from earlier work
[2] = Metabolic fate of radiolabeled dityrosine injected intravenously into mice (blood, tissue and urine radioactivity); format: in vivo
Experimental: Mice were injected with 2×10^5 cpm of [^14 C]dityrosine. FIG. 3A: Blood was collected at the indicated times by retro-orbital bleeding. FIG. 3B: Animals were sacrificed at the indicated times after injection of [^14 C]dityrosine. Recovery of radiolabeled material in tissues and urine was quantified by scintillation spectroscopy.
(§1) o,o'-[^14 C]Dityrosine (2×10^5 cpm) was injected into the animals intravenously. Plasma was centrifuged (400×g for 20 min at 4° C.) from blood collected by retro-orbital bleeding. Tissue samples were collected from animals killed by cervical dislocation, weighed and then homogenized in deionized water. Radioactivity in tissue homogenates, plasma, and urine was determined by liquid scintillation spectroscopy (Beckman LS 3801) with correction for quenching. [^14 C]Dityrosine was prepared from L-[^14 C]tyrosine (American Radiolabeled Chemicals Co.; St. Louis, Mo.) and o,o'-[^13 C12 ]dityrosine was prepared from L-[^13 C6 ]tyrosine (Cambridge Isotope Inc.; Andover, Mass.) using horseradish peroxidase (Boehringer Mannheim Biochemicals; Indianapolis, Ind.) and H2 O2 (Fisher Scientific Co.; Pittsburgh, Pa.) and isolated by reverse-phase HPLC; (27). o,o'-[^14 C]Dityrosine and radiolabeled material in urine were analyzed by HPLC (27) using a reverse-phase column (ODS ultrasphere, 250 mm×4.6 mm, particle size 5 μm.; Beckman,) and a flow rate of 1 ml/min. The column was equilibrated with 100% solvent A (1% acetic acid in water). Compounds were eluted with a discontinuous gradient of solvent B (1% acetic acid in methanol). The gradient was 0%-10% solvent B over 10 min, 10% solvent B for 4 min, 10%-100% solvent B over 5 min and 100% solvent B for 10 min. Prior to HPLC analysis, urinary amino acids were isolated by solid-phase extraction as outlined above. Recovery of radiolabeled material from urine subjected to this procedure was>90%. Radioactivity in each HPLC fraction was quantified by liquid scintillation spectroscopy.

[3] = Reverse-phase HPLC analysis of urine of animals injected intravenously with o,o'-[^14 C]dityrosine; format: in vivo, mice; conditions: urine after intravenous injection
Experimental: Urine collected from animals injected with [^14 C]dityrosine was subjected to reverse-phase HPLC analysis with monitoring of radioactivity by scintillation spectroscopy.
as §1, with “Compounds were eluted with a discontinuous gradient of solvent B (1% acetic acid in methanol). The gradient was 0%-10% solvent B over 10 min, 10% solvent B for 4 min, 10%-100% solvent B over 5 min and 100% solvent B for 10 min. Prior to HPLC analysis, urinary amino acids were isolated by solid-phase extraction as outlined above. Recovery of radiolabeled material from urine subjected to this procedure was>90%.” left out

[4] = system: peritoneal phagocytes of wild-type mice; experiment: Protein-bound o,o'-dityrosine in peritoneal leukocytes activated in vivo with zymosan, isotope dilution GC/MS; parameters: species or system mice (C57BL/6J)
Experimental: (§2) Thioglycolate-elicited peritoneal inflammatory cells were activated in vivo with zymosan. FIG. 2A: At the indicated time (n=3 animals) or FIG. 2B: 3 h after injection of zymosan, protein-bound o,o'-dityrosine in cellular proteins was quantified by isotope dilution GC/MS.
(§3) The animal studies committee of Washington University School of Medicine in St. Louis approved all protocols. The C57BL/6J mice used for these experiments were obtained from Jackson Laboratories (Bar Harbor, […].) and bred and maintained under pathogen-free conditions. Impaired O2^.cndot.- by phorbol ester-stimulated neutrophils isolated from CGD mice deficient in gp91 phox (13) was confirmed by monitoring the superoxide dimutase inhibitable reduction of ferricytochrome c (10). Mice were fed rodent diet 5001 (Harlan-Teklad, Madison, Wis.). Between ages 9 and 11 weeks, the mice were injected with one ml of 4% thioglycollate to recruit leukocytes into the peritoneum. The leukocytes were activated 20 hours (h) later by intraperitoneal injection of zymosan (250 mg/kg). Control animals were injected with one ml of buffer A (138 mM NaCl, 3 mM KCl, 0.1 M sodium phosphate, pH 7.4). Prior to and every 2 h during urine collection, the animals were injected intraperitoneally with 2 ml of buffer A.
Animals were killed by decapitation after metophane-induced anesthesia. After the abdominal wall was washed with 95% ethanol, leukocytes were harvested from the peritoneum using a siliconized glass pipette. The peritoneum was lavaged 3 times with 4 ml of ice-cold Hanks' Balanced Salt Solution (HBSS) containing 100 μM DTPA. Cells were suspended in ice-cold HBSS, collected by low speed centrifugation, and stored at -80° C. until analysis. […]
(§4) Amino acids were converted to their n-propyl esters, heptafluorobutyryl derivatives and quantified by isotope dilution gas chromatography/mass spectrometry (GC/MS) with selected ion monitoring (20,21). […] The ions monitored were: L-tyrosine, m/z 417 and 595; L-[^13 C6 ]tyrosine, m/z 423 and 601; o,o'-dityrosine, m/z 1030 and 1208; o,o'-[^13 C12 ]dityrosine, m/z 1042 and 1220.

peritoneal phagocytes = experiment: Recruitment of peritoneal cells by thioglycollate; format: in vivo, mice
Source text: as §3
Animals were killed by decapitation after metophane-induced anesthesia. After the abdominal wall was washed with 95% ethanol, leukocytes were harvested from the peritoneum using a siliconized glass pipette. The peritoneum was lavaged 3 times with 4 ml of ice-cold Hanks' Balanced Salt Solution (HBSS) containing 100 μM DTPA. Cells were suspended in ice-cold HBSS, collected by low speed centrifugation, and stored at -80° C. until analysis.
To determine whether white blood cells oxidatively damage proteins in vivo, isotope dilution GC/MS was used to quantify levels of o,o'-dityrosine in mouse peritoneal phagocytes. To recruit neutrophils into the peritoneum, the animals were injected with thioglycollate, a chemical irritant. Twenty hours after this first injection, the animals were given an intraperitoneal injection of zymosan, which stimulates phagocytes to produce H2 O2 and secrete myeloperoxidase into the phagolysosome (6). Thioglycollate-injected mice typically yielded 20-40×10^6 peritoneal cells. Neutrophils, mononuclear cells, and eosinophils represented 67±4%, 30±4%, and<1% of the harvested phagocytes (n=6 animals).

[5] = system: peritoneal phagocytes of CGD mice; experiment: Protein-bound o,o'-dityrosine in peritoneal phagocytes, isotope dilution GC/MS, CGD mice; format: in vivo; conditions: 3 hours of zymosan stimulation, mice deficient in NADPH oxidase
Experimental: as §2
as §3, with “The leukocytes were activated 20 hours (h) later by intraperitoneal injection of zymosan (250 mg/kg). Control animals were injected with one ml of buffer A (138 mM NaCl, 3 mM KCl, 0.1 M sodium phosphate, pH 7.4). Prior to and every 2 h during urine collection, the animals were injected intraperitoneally with 2 ml of buffer A.” left out
as §4

Compound: N[C@@H](Cc1ccc(O)c([N+](=O)[O-])c1)C(=O)O [3-nitrotyrosine]
amount excreted into urine [1]: Minimal amounts

radiolabeled material lost from the blood ([2]; 5 min after intravenous injection): more than 50% | radioactivity recovered in the urine ([2]; 1 h after intravenous injection): Thirty | radioactivity recovered in the urine ([2]; 3 h after intravenous injection): 65% | radioactivity recovered in the urine ([2]; 4 h after intravenous injection): 81% | radiolabeled material in blood, liver, spleen, and heart ([2]; after intravenous injection): essentially undetectable | radiolabeled material present in kidney ([2]; after intravenous injection): < 5% | apparent half-life in the blood (slower phase) ([2]; intravenous): ~ 30 min | clearance kinetics from the blood ([2]; intravenous): biphasic kinetics | radioactivity in urine co-migrating with authentic o,o'-[^14 C]dityrosine [3]: More than 80%
Compound: N[C@@H](Cc1ccc(O)c(-c2cc(C[C@H](N)C(=O)O)ccc2O)c1)C(=O)O [o,o'-[^14 C]dityrosine]

recovery of radioactive material in the urine (in words) ([2]; between 3 h and 4 h after intravenous injection): recovered almost quantitatively
Compound: NC(Cc1ccc(O)c(-c2cc(CC(N)C(=O)O)ccc2O)c1)C(=O)O (centres unmarked) [o,o'-dityrosine]
o,o'-dityrosine content of resident thioglycollate-elicited neutrophils ([4]; before zymosan): ~ 50 μmol per mol tyrosine

Compound: thioglycollate
eosinophils among harvested phagocytes (peritoneal phagocytes; n=6 animals): < 1% | mononuclear cells among harvested phagocytes (peritoneal phagocytes; n=6 animals): 30±4% | neutrophils among harvested phagocytes (peritoneal phagocytes; n=6 animals): 67±4% | peritoneal cells yielded (peritoneal phagocytes; thioglycollate-injected mice): 20-40 ×10^6 peritoneal cells

Compound: zymosan
time of peak of protein-bound o,o'-dityrosine ([4]; after zymosan injection): 3 h | increase of o,o'-dityrosine in cellular proteins ([4]; neutrophils exposed to zymosan in vivo): 4 fold | o,o'-dityrosine in phagocyte proteins [5]: undetectable | increase in protein-bound dityrosine ([5]; p<0.0005): completely abrogated
